According to patent US20230365592A1 (Agios Pharmaceuticals, Inc., priority 2022, published 2023):

target: T1, human PAH with the R408W mutation (Homo sapiens, UniProt P00439, R408W); assay: Cell Based Phenylalanine Flux Assay; details: A375 cells expressing human PAH R408W; 24 hrs compound incubation; 13C-Tyrosine by LC-MS; average where tested multiple times; read-out: AC50;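 further: after compound treatment, cells received sepiapterin plus isotope-labelled Phenylalanine for 4 hours, then labelled Tyrosine in the medium was quantified, 10-point 2-fold dilution series run in duplicate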
T1 construct: expressed in transfected cells
T1 sequence (P00439 1-452 R408W): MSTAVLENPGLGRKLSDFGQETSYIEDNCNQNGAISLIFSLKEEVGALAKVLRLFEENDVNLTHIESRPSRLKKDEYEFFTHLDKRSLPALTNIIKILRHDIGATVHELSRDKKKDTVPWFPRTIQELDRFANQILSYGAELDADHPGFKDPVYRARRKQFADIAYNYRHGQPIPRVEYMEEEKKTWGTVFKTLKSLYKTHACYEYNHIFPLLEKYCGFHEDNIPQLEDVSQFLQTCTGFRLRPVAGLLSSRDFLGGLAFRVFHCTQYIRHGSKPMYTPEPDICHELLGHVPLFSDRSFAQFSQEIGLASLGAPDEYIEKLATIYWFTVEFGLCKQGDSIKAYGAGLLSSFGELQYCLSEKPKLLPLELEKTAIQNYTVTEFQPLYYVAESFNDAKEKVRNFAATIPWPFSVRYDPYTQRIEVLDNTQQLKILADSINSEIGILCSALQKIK

Row | AC50 | Compound
1 | 1 to 5 µM | Fc1cccc(F)c1-c1nnc(N2CCc3[nH]cnc3[C@@H]2c2cc3cccc(C(F)(F)F)n3n2)o1 [Example 2132, (R)-2-(2,6-difluorophenyl)-5-(4-(7-(trifluoromethyl)pyrazolo[1,5-a]pyridin-2-yl)-1,4,6,7-tetrahydro-5H-imidazo[4,5-c]pyridin-5-yl)-1,3,4-oxadiazole]
2 | < 0.5 µM | Fc1cccc(F)c1-c1nnc(N2CCc3[nH]cnc3[C@H]2c2cc3cccc(C(F)(F)F)n3n2)o1 [Example 2133, (S)-2-(2,6-difluorophenyl)-5-(4-(7-(trifluoromethyl)pyrazolo[1,5-a]pyridin-2-yl)-1,4,6,7-tetrahydro-5H-imidazo[4,5-c]pyridin-5-yl)-1,3,4-oxadiazole]
3 | 1 to 5 µM | Fc1cccc(N2CCc3[nH]cnc3[C@@H]2c2cc3ccccn3n2)n1 [Example 2134, (R)-5-(6-fluoropyridin-2-yl)-4-(pyrazolo[1,5-a]pyridin-2-yl)-4,5,6,7-tetrahydro-1H-imidazo[4,5-c]pyridine]
4 | < 0.5 µM | Fc1cccc(N2CCc3[nH]cnc3[C@H]2c2cc3ccccn3n2)n1 [Example 2135, (S)-5-(6-fluoropyridin-2-yl)-4-(pyrazolo[1,5-a]pyridin-2-yl)-4,5,6,7-tetrahydro-1H-imidazo[4,5-c]pyridine]
5 | > 5 µM | FC(F)(F)c1ccc(N2CCc3[nH]cnc3[C@@H]2c2cc3cccc(Cl)n3n2)nc1 [Example 2137, (R)-4-(7-chloropyrazolo[1,5-a]pyridin-2-yl)-5-(5-(trifluoromethyl)pyridin-2-yl)-4,5,6,7-tetrahydro-1H-imidazo[4,5-c]pyridine]
6 | < 0.5 µM | FC(F)c1cccc2cc([C@@H]3c4nc[nH]c4CCN3c3ccc(C(F)(F)F)cn3)nn12 [Example 2138, (S)-4-(7-(difluoromethyl)pyrazolo[1,5-a]pyridin-2-yl)-5-(5-(trifluoromethyl)pyridin-2-yl)-4,5,6,7-tetrahydro-1H-imidazo[4,5-c]pyridine]
7 | < 0.5 µM | O=C(c1cnc(C2CC2)o1)N1CCc2[nH]cnc2[C@H]1c1cc2c(C(F)(F)F)cccn2n1 [Example 2140, (S)-(2-cyclopropyloxazol-5-yl)(4-(4-(trifluoromethyl)pyrazolo[1,5-a]pyridin-2-yl)-1,4,6,7-tetrahydro-5H-imidazo[4,5-c]pyridin-5-yl)methanone]
8 | < 0.5 µM | CC(C)(C)c1ncc(C(=O)N2CCc3[nH]cnc3[C@H]2c2cc3c(C(F)(F)F)cccn3n2)o1 [Example 2142, (S)-(2-(tert-butyl)oxazol-5-yl)(4-(4-(trifluoromethyl)pyrazolo[1,5-a]pyridin-2-yl)-1,4,6,7-tetrahydro-5H-imidazo[4,5-c]pyridin-5-yl)methanone]
9 | < 0.5 µM | CC(C)(F)c1ncc(C(=O)N2CCc3[nH]cnc3[C@H]2c2cc3c(C(F)(F)F)cccn3n2)o1 [Example 2144, (S)-(2-(2-fluoropropan-2-yl)oxazol-5-yl)(4-(4-(trifluoromethyl)pyrazolo[1,5-a]pyridin-2-yl)-1,4,6,7-tetrahydro-5H-imidazo[4,5-c]pyridin-5-yl)methanone]
10 | > 5 µM | CC(C)c1cccn2nc([C@H]3c4nc[nH]c4CCN3c3ccc(C(F)(F)F)cn3)cc12 [Example 2149, (R)-4-(4-isopropylpyrazolo[1,5-a]pyridin-2-yl)-5-(5-(trifluoromethyl)pyridin-2-yl)-4,5,6,7-tetrahydro-1H-imidazo[4,5-c]pyridine]
11 | > 5 µM | COc1cccn2nc([C@H]3c4nc[nH]c4CCN3c3nnc(C(F)F)o3)cc12 [Example 2150, (R)-2-(difluoromethyl)-5-(4-(4-methoxypyrazolo[1,5-a]pyridin-2-yl)-1,4,6,7-tetrahydro-5H-imidazo[4,5-c]pyridin-5-yl)-1,3,4-oxadiazole]
12 | < 0.5 µM | COc1cccn2nc([C@@H]3c4nc[nH]c4CCN3c3nnc(C(F)F)o3)cc12 [Example 2151, (S)-2-(difluoromethyl)-5-(4-(4-methoxypyrazolo[1,5-a]pyridin-2-yl)-1,4,6,7-tetrahydro-5H-imidazo[4,5-c]pyridin-5-yl)-1,3,4-oxadiazole]
13 | < 0.5 µM | FC(F)Oc1cccn2nc([C@@H]3c4nc[nH]c4CCN3c3nnc(C(F)F)o3)cc12 [Example 2153, (S)-2-(4-(4-(difluoromethoxy)pyrazolo[1,5-a]pyridin-2-yl)-1,4,6,7-tetrahydro-5H-imidazo[4,5-c]pyridin-5-yl)-5-(difluoromethyl)-1,3,4-oxadiazole]
14 | 0.5 to 1 µM | Cc1cccn2nc([C@@H]3c4nc[nH]c4CCN3c3nnc(-c4cnccn4)o3)cc12 [Example 2157, (S)-2-(4-(4-methylpyrazolo[1,5-a]pyridin-2-yl)-1,4,6,7-tetrahydro-5H-imidazo[4,5-c]pyridin-5-yl)-5-(pyrazin-2-yl)-1,3,4-oxadiazole]
15 | 0.5 to 1 µM | FC(F)(F)c1cccn2nc([C@@H]3c4nc[nH]c4CCN3c3nnc(-c4ccncn4)o3)cc12 [Example 2162, (S)-2-(pyrimidin-4-yl)-5-(4-(4-(trifluoromethyl)pyrazolo[1,5-a]pyridin-2-yl)-1,4,6,7-tetrahydro-5H-imidazo[4,5-c]pyridin-5-yl)-1,3,4-oxadiazole]
16 | > 5 µM | FC(F)(F)c1cccn2nc([C@H]3c4nc[nH]c4CCN3c3nnc(-c4ccncn4)o3)cc12 [Example 2163, (R)-2-(pyrimidin-4-yl)-5-(4-(4-(trifluoromethyl)pyrazolo[1,5-a]pyridin-2-yl)-1,4,6,7-tetrahydro-5H-imidazo[4,5-c]pyridin-5-yl)-1,3,4-oxadiazole]
17 | < 0.5 µM | COc1cccn2nc([C@@H]3c4nc[nH]c4CCN3c3nnc(C(F)(F)F)o3)cc12 [Example 2164, (S)-2-(4-(4-methoxypyrazolo[1,5-a]pyridin-2-yl)-1,4,6,7-tetrahydro-5H-imidazo[4,5-c]pyridin-5-yl)-5-(trifluoromethyl)-1,3,4-oxadiazole]
18 | > 5 µM | COc1cccn2nc([C@H]3c4nc[nH]c4CCN3c3nnc(C(F)(F)F)o3)cc12 [Example 2165, (R)-2-(4-(4-methoxypyrazolo[1,5-a]pyridin-2-yl)-1,4,6,7-tetrahydro-5H-imidazo[4,5-c]pyridin-5-yl)-5-(trifluoromethyl)-1,3,4-oxadiazole]
19 | > 5 µM | FC(F)c1nnc(N2CCc3[nH]cnc3[C@@H]2c2cc3c(C4CC4)cccn3n2)o1 [Example 2166, (R)-2-(4-(4-cyclopropylpyrazolo[1,5-a]pyridin-2-yl)-1,4,6,7-tetrahydro-5H-imidazo[4,5-c]pyridin-5-yl)-5-(difluoromethyl)-1,3,4-oxadiazole]
20 | 1 to 5 µM | CC(C)c1cccn2nc([C@H]3c4nc[nH]c4CCN3c3nnc(C4CC4)o3)cc12 [Example 2168, (R)-2-cyclopropyl-5-(4-(4-isopropylpyrazolo[1,5-a]pyridin-2-yl)-1,4,6,7-tetrahydro-5H-imidazo[4,5-c]pyridin-5-yl)-1,3,4-oxadiazole]
21 | < 0.5 µM | CC(C)c1cccn2nc([C@@H]3c4nc[nH]c4CCN3c3nnc(C4CC4)o3)cc12 [Example 2169, (S)-2-cyclopropyl-5-(4-(4-isopropylpyrazolo[1,5-a]pyridin-2-yl)-1,4,6,7-tetrahydro-5H-imidazo[4,5-c]pyridin-5-yl)-1,3,4-oxadiazole]
22 | < 0.5 µM | FC(F)(F)c1ccc(N2CCc3[nH]cnc3[C@H]2c2cc3c(C4CC4)cccn3n2)nc1 [Example 2170, (S)-4-(4-cyclopropylpyrazolo[1,5-a]pyridin-2-yl)-5-(5-(trifluoromethyl)pyridin-2-yl)-4,5,6,7-tetrahydro-1H-imidazo[4,5-c]pyridine]
23 | > 5 µM | FC(F)(F)c1ccc(N2CCc3[nH]cnc3[C@@H]2c2cc3c(C4CC4)cccn3n2)nc1 [Example 2171, (R)-4-(4-cyclopropylpyrazolo[1,5-a]pyridin-2-yl)-5-(5-(trifluoromethyl)pyridin-2-yl)-4,5,6,7-tetrahydro-1H-imidazo[4,5-c]pyridine]
24 | < 0.5 µM | c1cnc(N2CCc3[nH]cnc3[C@H]2c2cc3c(C4CC4)cccn3n2)nc1 [Example 2172, (S)-4-(4-cyclopropylpyrazolo[1,5-a]pyridin-2-yl)-5-(pyrimidin-2-yl)-4,5,6,7-tetrahydro-1H-imidazo[4,5-c]pyridine]
25 | 1 to 5 µM | c1cnc(N2CCc3[nH]cnc3[C@@H]2c2cc3c(C4CC4)cccn3n2)nc1 [Example 2173, (R)-4-(4-cyclopropylpyrazolo[1,5-a]pyridin-2-yl)-5-(pyrimidin-2-yl)-4,5,6,7-tetrahydro-1H-imidazo[4,5-c]pyridine]
26 | < 0.5 µM | FC(F)(F)c1cnc(N2CCc3[nH]cnc3[C@H]2c2cc3c(C4CC4)cccn3n2)nc1 [Example 2174, (S)-4-(4-cyclopropylpyrazolo[1,5-a]pyridin-2-yl)-5-(5-(trifluoromethyl)pyrimidin-2-yl)-4,5,6,7-tetrahydro-1H-imidazo[4,5-c]pyridine]
27 | > 5 µM | FC(F)(F)c1cnc(N2CCc3[nH]cnc3[C@@H]2c2cc3c(C4CC4)cccn3n2)nc1 [Example 2175, (R)-4-(4-cyclopropylpyrazolo[1,5-a]pyridin-2-yl)-5-(5-(trifluoromethyl)pyrimidin-2-yl)-4,5,6,7-tetrahydro-1H-imidazo[4,5-c]pyridine]
28 | > 5 µM | Fc1cccn2nc([C@H]3c4nc[nH]c4CCN3c3nnc(-c4ccncn4)o3)cc12 [Example 2179, (R)-2-(4-(4-fluoropyrazolo[1,5-a]pyridin-2-yl)-1,4,6,7-tetrahydro-5H-imidazo[4,5-c]pyridin-5-yl)-5-(pyrimidin-4-yl)-1,3,4-oxadiazole]
